How the values were obtained:
Format in all cases: in vivo
[1] = system: ragweed (common ragweed, Ambrosia artemisiifolia); assay: Test A postemergence application, visual injury rating 0-100; conditions: Postemergence, 10 days, 0 is no effect, 100 is complete control
Procedure, shortened: (§1)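 Scale 0–100 (no effect to complete control), visual, versus untreated controls, read 10 days after application. Application: preemergence directed spray onto seeded loam–sand soil, or postemergence to young plants; formulation in non-phytotoxic solvent with surfactant.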

[2] = system: green foxtail (Setaria viridis); assay: as above; conditions: Postemergence, 10 days, 0 is no effect, 100 is complete control
Procedure, shortened: as §1

kochia (Bassia scoparia) [3] = assay: as above; conditions: Postemergence, 10 days, 0 is no effect, 100 is complete control
Procedure, shortened: as §1

corn (Zea mays) [4] = assay: as above; conditions: Postemergence, 10 days, 0 is no effect, 100 is complete control
Procedure, shortened: as §1

[5] = system: ryegrass, Italian (italian ryegrass, Lolium multiflorum); assay: as above; conditions: Postemergence, 10 days, 0 is no effect, 100 is complete control
Procedure, shortened: as §1

[6] = system: wheat (Triticum aestivum); assay: as above; conditions: Postemergence, 10 days, 0 is no effect, 100 is complete control
Procedure, shortened: as §1

soybean (Glycine max) [7] = assay: as above; conditions: Postemergence, 10 days, 0 is no effect, 100 is complete control
Procedure, shortened: as §1

[8] = system: galium (catchweed bedstraw, Galium aparine); assay: as above; conditions: Postemergence, 10 days, 0 is no effect, 100 is complete control
Procedure, shortened: as §1

[9] = system: blackgrass (Alopecurus myosuroides); assay: as above; conditions: Postemergence, 10 days, 0 is no effect, 100 is complete control
Procedure, shortened: as §1

[10] = system: oat, wild (wild oat, Avena fatua); assay: as above; conditions: Postemergence, 10 days, 0 is no effect, 100 is complete control
Procedure, shortened: as §1

[11] = system: palmer (palmer amaranth, palmer pigweed, Amaranthus palmeri); assay: as above; conditions: Postemergence, 10 days, 0 is no effect, 100 is complete control
Procedure, shortened: as §1

[12] = system: horseweed (Erigeron canadensis); assay: as above; conditions: Postemergence, 10 days, 0 is no effect, 100 is complete control
Procedure, shortened: as §1

[13] = system: barnyardgrass (Echinochloa crus-galli); assay: as above; conditions: Postemergence, 10 days, 0 is no effect, 100 is complete control
Procedure, shortened: as §1

[14] = system: barnyardgrass (Echinochloa crusgalli); assay: Test B flooded paddy test, visual plant response rating 0-100; conditions: 250 g ai/ha, Flood, applied to paddy water, evaluated after 13 days
Procedure, shortened: (§2)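 Greenhouse, 13 d. Seedlings at 2-leaf stage, pots flooded to 3 cm, compound delivered into floodwater, water level held constant. Evaluated visually relative to controls.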

[15] = system: ducksalad (Heteranthera limosa); assay: as above; conditions: 250 g ai/ha, Flood, applied to paddy water, evaluated after 13 days
Procedure, shortened: as §2

[16] = system: sedge, umbrella (small-flower umbrella sedge, Cyperus difformis); assay: as above; conditions: 250 g ai/ha, Flood, applied to paddy water, evaluated after 13 days
Procedure, shortened: as §2

rice (Oryza sativa) = assay: as above; conditions: 250 g ai/ha, Flood, applied to paddy water, evaluated after 13 days
Procedure, shortened: as §2

[17] = system: ragweed (common ragweed, Ambrosia artemisiifolia); assay: Test A preemergence soil spray, visual injury rating 0-100; conditions: 10 days, 0 = no effect, 100 = complete control
Procedure, shortened: as §1

[18] = system: green foxtail (Setaria viridis); assay: as above; conditions: 10 days, 0 = no effect, 100 = complete control
Procedure, shortened: as §1

kochia (Bassia scoparia) [19] = assay: as above; conditions: 10 days, 0 = no effect, 100 = complete control
Procedure, shortened: as §1

corn (Zea mays) [20] = assay: as above; conditions: 10 days, 0 = no effect, 100 = complete control
Procedure, shortened: as §1

[21] = system: ryegrass, Italian (italian ryegrass, Lolium multiflorum); assay: as above; conditions: 10 days, 0 = no effect, 100 = complete control
Procedure, shortened: as §1

[22] = system: wheat (Triticum aestivum); assay: as above; conditions: 10 days, 0 = no effect, 100 = complete control
Procedure, shortened: as §1

soybean (Glycine max) [23] = assay: as above; conditions: 10 days, 0 = no effect, 100 = complete control
Procedure, shortened: as §1

[24] = system: blackgrass (Alopecurus myosuroides); assay: as above; conditions: 10 days, 0 = no effect, 100 = complete control
Procedure, shortened: as §1

[25] = system: oat, wild (wild oat, Avena fatua); assay: as above; conditions: 10 days, 0 = no effect, 100 = complete control
Procedure, shortened: as §1

[26] = system: palmer (palmer amaranth, palmer pigweed, Amaranthus palmeri); assay: as above; conditions: 10 days, 0 = no effect, 100 = complete control
Procedure, shortened: as §1

[27] = system: barnyardgrass (Echinochloa crus-galli); assay: as above; conditions: 10 days, 0 = no effect, 100 = complete control
Procedure, shortened: as §1

## CC1(C(=O)NC2C=CC(C(=O)OCCS(C)(=O)=O)C2)CN(c2cc(Cl)cc(Cl)c2)C(=O)O1 (stereo not shown) [Compound 46]
[1]; 125 g ai/ha
  Ragweed plant response rating (0 to 100 scale): 60
[1]; 500 g ai/ha
  Ragweed plant response rating (0 to 100 scale): 80
[2]; 125 g ai/ha
  Foxtail, Green plant response rating (0 to 100 scale): 80
[2]; 500 g ai/ha
  Foxtail, Green plant response rating (0 to 100 scale): 90
Kochia (Bassia scoparia) [3]; 125 g ai/ha
  Kochia plant response rating (0 to 100 scale): 80
Kochia (Bassia scoparia) [3]; 500 g ai/ha
  Kochia plant response rating (0 to 100 scale): 80
Corn (Zea mays) [4]; 125 g ai/ha
  Corn plant response rating (0 to 100 scale): 100
Corn (Zea mays) [4]; 500 g ai/ha
  Corn plant response rating (0 to 100 scale): 100
[5]; 125 g ai/ha
  Ryegrass, Italian plant response rating (0 to 100 scale): 70
[5]; 500 g ai/ha
  Ryegrass, Italian plant response rating (0 to 100 scale): 70
[6]; 125 g ai/ha
  Wheat plant response rating (0 to 100 scale): 90
[6]; 500 g ai/ha
  Wheat plant response rating (0 to 100 scale): 90
Soybean (Glycine max) [7]; 125 g ai/ha
  Soybean plant response rating (0 to 100 scale): 80
Soybean (Glycine max) [7]; 500 g ai/ha
  Soybean plant response rating (0 to 100 scale): 90
[8]; 125 g ai/ha
  Galium plant response rating (0 to 100 scale): 80
[8]; 500 g ai/ha
  Galium plant response rating (0 to 100 scale): 70
[9]; 125 g ai/ha
  Blackgrass plant response rating (0 to 100 scale): 100
[9]; 500 g ai/ha
  Blackgrass plant response rating (0 to 100 scale): 100
[10]; 125 g ai/ha
  Oat, Wild plant response rating (0 to 100 scale): 80
[10]; 500 g ai/ha
  Oat, Wild plant response rating (0 to 100 scale): 90
[11]; 125 g ai/ha
  Amaranth, Palmer / Pigweed, Palmer plant response rating (0 to 100 scale): 90
[11]; 500 g ai/ha
  Amaranth, Palmer / Pigweed, Palmer plant response rating (0 to 100 scale): 90
[12]; 125 g ai/ha
  Horseweed plant response rating (0 to 100 scale): 80
[12]; 500 g ai/ha
  Horseweed plant response rating (0 to 100 scale): 80
[13]; 125 g ai/ha
  Barnyardgrass plant response rating (0 to 100 scale): 100
[13]; 500 g ai/ha
  Barnyardgrass plant response rating (0 to 100 scale): 100
[14]
  Plant response rating, Barnyardgrass (0 to 100 scale, 0 is no effect and 100 is complete control): 70
[15]
  Plant response rating, Ducksalad (0 to 100 scale, 0 is no effect and 100 is complete control): 90
[16]
  Plant response rating, Sedge, Umbrella (0 to 100 scale, 0 is no effect and 100 is complete control): 95
Rice (Oryza sativa)
  Plant response rating, Rice (0 to 100 scale, 0 is no effect and 100 is complete control): 10
[17]; 125 g ai/ha
  Ragweed plant response rating (0 to 100 scale): 30
[17]; 500 g ai/ha
  Ragweed plant response rating (0 to 100 scale): 70
[18]; 125 g ai/ha
  Foxtail, Green plant response rating (0 to 100 scale): 0
[18]; 500 g ai/ha
  Foxtail, Green plant response rating (0 to 100 scale): 0
Kochia (Bassia scoparia) [19]; 125 g ai/ha
  Kochia plant response rating (0 to 100 scale): 60
Kochia (Bassia scoparia) [19]; 500 g ai/ha
  Kochia plant response rating (0 to 100 scale): 90
Corn (Zea mays) [20]; 125 g ai/ha
  Corn plant response rating (0 to 100 scale): 0
Corn (Zea mays) [20]; 500 g ai/ha
  Corn plant response rating (0 to 100 scale): 90
[21]; 125 g ai/ha
  Ryegrass, Italian plant response rating (0 to 100 scale): 80
[21]; 500 g ai/ha
  Ryegrass, Italian plant response rating (0 to 100 scale): 90
[22]; 125 g ai/ha
  Wheat plant response rating (0 to 100 scale): 70
[22]; 500 g ai/ha
  Wheat plant response rating (0 to 100 scale): 90
Soybean (Glycine max) [23]; 125 g ai/ha
  Soybean plant response rating (0 to 100 scale): 10
Soybean (Glycine max) [23]; 500 g ai/ha
  Soybean plant response rating (0 to 100 scale): 60
[24]; 125 g ai/ha
  Blackgrass plant response rating (0 to 100 scale): 80
[24]; 500 g ai/ha
  Blackgrass plant response rating (0 to 100 scale): 90
[25]; 125 g ai/ha
  Oat, Wild plant response rating (0 to 100 scale): 70
[25]; 500 g ai/ha
  Oat, Wild plant response rating (0 to 100 scale): 90
[26]; 125 g ai/ha
  Amaranth, Palmer plant response rating (0 to 100 scale): 80
[26]; 500 g ai/ha
  Amaranth, Palmer plant response rating (0 to 100 scale): 100
[27]; 125 g ai/ha
  Barnyardgrass plant response rating (0 to 100 scale): 80
[27]; 500 g ai/ha
  Barnyardgrass plant response rating (0 to 100 scale): 100

Source: patent US20260285850A1, “SUBSTITUTED OXAZOLIDINONES AND IMIDAZOLINONES AS HERBICIDES” (FMC CORPORATION, priority 2023, published 2026)
